Test results taken from US20120258922A1, “S[…] LOW-DENSITY L[…]” (Seminis Vegetable Seeds, Inc., priority 2011, published 2012).
Where two headings read alike, the source gives them in different places.

Columns and labels:
[1] = tested on: human monocyte-derived macrophages (HMDM); conditions: each agent individually, at lower doses; LDL-depleted HMDM (FIGS. 8, 9)
Excerpt: (§1) Blood was drawn and collected from healthy human volunteers, and LDL was isolated by density gradient centrifugation following methods known to one of ordinary skill in the art (e.g., Napolitano et al., Int J Biochem Cell Biol, 35:1127-43, 2002). Monocytes were also isolated from the blood and separated by Ficoll Hypaque centrifugation also according to known methods (e.g., Napolitano et al., Eur J Clin Invest, 35:482-90, 2005), followed by negative magnetic separation and maintained in culture with 20% autologous serum or F-10 medium for 5-7 days to differentiate into human monocyte-derived macrophages (HMDM). […] Following the pre-incubation step, LDL (100 μg/ml) was added and the cells were incubated for 24 hours. Supernatants were used for assessing oxidized LDL by ELISA (Mercodia) and/or TBARS (“Thiobarbituric Acid Reactive Substances”) as described previously (Devaraj et al., J Clin Invest 98:756, 1996). To assess the glutathione:glutathione disulfide (GSH:GSSG) ratio as an indicator of the redox poise of the cell, cells were dislodged by PBS-EDTA and were lysed (Pierce MPER) after a freeze-thaw cycle. After sonication and centrifugation, the cell pellet was stored at −80° C. until the relative levels of GSH and GSSG were assayed (Oxis Biochemicals). […]

[2] = tested on: human monocyte-derived macrophages (HMDM); assay: Macrophage-mediated LDL oxidation in HMDM (oxidized LDL by ELISA and/or TBARS); assay type: cell-based; conditions: for concentrations that significantly inhibit the oxidation of LDL: agent alone, 100 μg/ml LDL, p<0.01 compared to LDL control (FIG. 1, FIG. 2); for concentrations that significantly inhibit the oxidation of LDL / maximum inhibition of LDL oxidation: HMDM; for maximum inhibition of LDL oxidation: each agent individually, dose-dependent, compared to the LDL control, 100 μg/ml LDL (FIG. 1, FIG. 2); for IC50: α-tocopherol alone
Protocol: Raw broccoli extracts (“BE” or “B. Extract”) were prepared from four hybrids. […] 50 grams of extract were mixed with equal parts 50mM MES buffer pH 6.0 solution. Samples were blended for approximately 1 minute until homogeneous then maintained at room temperature for 10 min. Filtrates from samples were diluted 1:40 with 50 mM MES buffer for the assay. […] Assays with the broccoli extracts were performed as described above.

quinone reductase = conditions: for QUINONE REDUCTASE ACTIVITY, Expt. 1 / QUINONE REDUCTASE ACTIVITY, Expt. 2 / QUINONE REDUCTASE ACTIVITY, Expt. 3 / QUINONE REDUCTASE ACTIVITY, Average: HMDM + LDL; for QUINONE REDUCTASE ACTIVITY, Average: average of Expt. 1-3; for quinone reductase activity (in words): each agent individually, LDL-treated HMDM (Table 1, FIGS. 10A,B)
Excerpt: Blood was drawn and collected from healthy human volunteers, and LDL was isolated by density gradient centrifugation following methods known to one of ordinary skill in the art (e.g., Napolitano et al., Int J Biochem Cell Biol, 35:1127-43, 2002). Monocytes were also isolated from the blood and separated by Ficoll Hypaque centrifugation also according to known methods (e.g., Napolitano et al., Eur J Clin Invest, 35:482-90, 2005), followed by negative magnetic separation and maintained in culture with 20% autologous serum or F-10 medium for 5-7 days to differentiate into human monocyte-derived macrophages (HMDM). […] Following the pre-incubation step, LDL (100 μg/ml) was added and the cells were incubated for 24 hours. Supernatants were used for assessing oxidized LDL by ELISA (Mercodia) and/or TBARS (“Thiobarbituric Acid Reactive Substances”) as described previously (Devaraj et al., J Clin Invest 98:756, 1996). To assess the glutathione:glutathione disulfide (GSH:GSSG) ratio as an indicator of the redox poise of the cell, cells were dislodged by PBS-EDTA and were lysed (Pierce MPER) after a freeze-thaw cycle. After sonication and centrifugation, the cell pellet was stored at −80° C. until the relative levels of GSH and GSSG were assayed (Oxis Biochemicals). Quinone reductase activity was assayed following the method described previously (J. Fahey et al., Methods in Enzymology 382, 243-258, 2004).

NQO1 = assay: Inhibition of LDL oxidation in HMDM with SiNQO1 silencing; conditions: 100 μg/ml LDL (FIG. 12)
Excerpt: as §1

## C[S+]([O-])CCCCN=C=S (stereo not drawn) [sulforaphane]
[1]
  GSH:GSSG ratio: restored the ratio to normal levels
[2]; 2 μM sulforaphane individually applied (FIG. 11)
  effect on LDL oxidation: reduced LDL oxidation
[2]
  concentrations that significantly inhibit the oxidation of LDL: greater than 2 μM
  maximum inhibition of LDL oxidation: 58%
Quinone reductase; 2 μM sulforaphane
  QUINONE REDUCTASE ACTIVITY, Expt. 1: 151.23 nmol/min/mg protein
  QUINONE REDUCTASE ACTIVITY, Expt. 2: 124.23 nmol/min/mg protein
  QUINONE REDUCTASE ACTIVITY, Expt. 3: 104.56 nmol/min/mg protein
  QUINONE REDUCTASE ACTIVITY, Average: 126.6733 nmol/min/mg protein
Quinone reductase
  quinone reductase activity (in words): restored enzymatic activity to normal levels

## Cc1c(C)c2c(c(C)c1O)CC[C@@](C)(CCC[C@H](C)CCC[C@H](C)CCCC(C)C)O2 [α-tocopherol]
[1]
  GSH:GSSG ratio: restored the ratio to normal levels
NQO1
  effectiveness at inhibiting LDL oxidation after NQO1 silencing: reduced but not complete reduction of the effectiveness
[2]; 25 μM α-tocopherol individually applied (FIG. 11)
  effect on LDL oxidation: reduced LDL oxidation
[2]
  concentrations that significantly inhibit the oxidation of LDL: greater than 12.5 μM
  maximum inhibition of LDL oxidation: 58%
[2]; FIG. 5 experiment
  IC50: 53.1 µM
[2]; FIG. 7 experiment
  IC50: 23.6 µM
Quinone reductase; 6.25 μM α-tocopherol
  QUINONE REDUCTASE ACTIVITY, Expt. 1: 59.87 nmol/min/mg protein
  QUINONE REDUCTASE ACTIVITY, Expt. 2: 68.97 nmol/min/mg protein
  QUINONE REDUCTASE ACTIVITY, Expt. 3: 41.12 nmol/min/mg protein
  QUINONE REDUCTASE ACTIVITY, Average: 56.65 nmol/min/mg protein
Quinone reductase; 12.5 μM α-tocopherol
  QUINONE REDUCTASE ACTIVITY, Expt. 1: 66.45 nmol/min/mg protein
  QUINONE REDUCTASE ACTIVITY, Expt. 2: 69.47 nmol/min/mg protein
  QUINONE REDUCTASE ACTIVITY, Expt. 3: 42.25 nmol/min/mg protein
  QUINONE REDUCTASE ACTIVITY, Average: 59.39 nmol/min/mg protein
Quinone reductase; 25 μM α-tocopherol
  QUINONE REDUCTASE ACTIVITY, Expt. 1: 68.98 nmol/min/mg protein
  QUINONE REDUCTASE ACTIVITY, Expt. 2: 64.56 nmol/min/mg protein
  QUINONE REDUCTASE ACTIVITY, Expt. 3: 65.14 nmol/min/mg protein
  QUINONE REDUCTASE ACTIVITY, Average: 66.23 nmol/min/mg protein
Quinone reductase; 50 μM α-tocopherol
  QUINONE REDUCTASE ACTIVITY, Expt. 1: 77.14 nmol/min/mg protein
  QUINONE REDUCTASE ACTIVITY, Expt. 2: 74.19 nmol/min/mg protein
  QUINONE REDUCTASE ACTIVITY, Expt. 3: 66.23 nmol/min/mg protein
  QUINONE REDUCTASE ACTIVITY, Average: 72.52 nmol/min/mg protein
Quinone reductase
  quinone reductase activity (in words): only a modest effect
